Results published in patent US9597330B2, “Drugs for treating respiratory diseases” (DAIICHI SANKYO COMPANY, LIMITED, priority 2013, dated 2017).

Molecular target: hNav 1.7 (Homo sapiens (Human), UniProt Q15858)
Experiment: Electrophysiological evaluation, automated patch clamp (IonWorks Quattro, Population Patch Clamp mode)
Type: cell-based
Conditions: HEK293A cells stably expressing hNav 1.7/β1/β2; response to second depolarization pulse, pre-pulse potential set to V1/2; read-out: hNav1.7 IC50

Chain of hNav 1.7 (Q15858 whole entry): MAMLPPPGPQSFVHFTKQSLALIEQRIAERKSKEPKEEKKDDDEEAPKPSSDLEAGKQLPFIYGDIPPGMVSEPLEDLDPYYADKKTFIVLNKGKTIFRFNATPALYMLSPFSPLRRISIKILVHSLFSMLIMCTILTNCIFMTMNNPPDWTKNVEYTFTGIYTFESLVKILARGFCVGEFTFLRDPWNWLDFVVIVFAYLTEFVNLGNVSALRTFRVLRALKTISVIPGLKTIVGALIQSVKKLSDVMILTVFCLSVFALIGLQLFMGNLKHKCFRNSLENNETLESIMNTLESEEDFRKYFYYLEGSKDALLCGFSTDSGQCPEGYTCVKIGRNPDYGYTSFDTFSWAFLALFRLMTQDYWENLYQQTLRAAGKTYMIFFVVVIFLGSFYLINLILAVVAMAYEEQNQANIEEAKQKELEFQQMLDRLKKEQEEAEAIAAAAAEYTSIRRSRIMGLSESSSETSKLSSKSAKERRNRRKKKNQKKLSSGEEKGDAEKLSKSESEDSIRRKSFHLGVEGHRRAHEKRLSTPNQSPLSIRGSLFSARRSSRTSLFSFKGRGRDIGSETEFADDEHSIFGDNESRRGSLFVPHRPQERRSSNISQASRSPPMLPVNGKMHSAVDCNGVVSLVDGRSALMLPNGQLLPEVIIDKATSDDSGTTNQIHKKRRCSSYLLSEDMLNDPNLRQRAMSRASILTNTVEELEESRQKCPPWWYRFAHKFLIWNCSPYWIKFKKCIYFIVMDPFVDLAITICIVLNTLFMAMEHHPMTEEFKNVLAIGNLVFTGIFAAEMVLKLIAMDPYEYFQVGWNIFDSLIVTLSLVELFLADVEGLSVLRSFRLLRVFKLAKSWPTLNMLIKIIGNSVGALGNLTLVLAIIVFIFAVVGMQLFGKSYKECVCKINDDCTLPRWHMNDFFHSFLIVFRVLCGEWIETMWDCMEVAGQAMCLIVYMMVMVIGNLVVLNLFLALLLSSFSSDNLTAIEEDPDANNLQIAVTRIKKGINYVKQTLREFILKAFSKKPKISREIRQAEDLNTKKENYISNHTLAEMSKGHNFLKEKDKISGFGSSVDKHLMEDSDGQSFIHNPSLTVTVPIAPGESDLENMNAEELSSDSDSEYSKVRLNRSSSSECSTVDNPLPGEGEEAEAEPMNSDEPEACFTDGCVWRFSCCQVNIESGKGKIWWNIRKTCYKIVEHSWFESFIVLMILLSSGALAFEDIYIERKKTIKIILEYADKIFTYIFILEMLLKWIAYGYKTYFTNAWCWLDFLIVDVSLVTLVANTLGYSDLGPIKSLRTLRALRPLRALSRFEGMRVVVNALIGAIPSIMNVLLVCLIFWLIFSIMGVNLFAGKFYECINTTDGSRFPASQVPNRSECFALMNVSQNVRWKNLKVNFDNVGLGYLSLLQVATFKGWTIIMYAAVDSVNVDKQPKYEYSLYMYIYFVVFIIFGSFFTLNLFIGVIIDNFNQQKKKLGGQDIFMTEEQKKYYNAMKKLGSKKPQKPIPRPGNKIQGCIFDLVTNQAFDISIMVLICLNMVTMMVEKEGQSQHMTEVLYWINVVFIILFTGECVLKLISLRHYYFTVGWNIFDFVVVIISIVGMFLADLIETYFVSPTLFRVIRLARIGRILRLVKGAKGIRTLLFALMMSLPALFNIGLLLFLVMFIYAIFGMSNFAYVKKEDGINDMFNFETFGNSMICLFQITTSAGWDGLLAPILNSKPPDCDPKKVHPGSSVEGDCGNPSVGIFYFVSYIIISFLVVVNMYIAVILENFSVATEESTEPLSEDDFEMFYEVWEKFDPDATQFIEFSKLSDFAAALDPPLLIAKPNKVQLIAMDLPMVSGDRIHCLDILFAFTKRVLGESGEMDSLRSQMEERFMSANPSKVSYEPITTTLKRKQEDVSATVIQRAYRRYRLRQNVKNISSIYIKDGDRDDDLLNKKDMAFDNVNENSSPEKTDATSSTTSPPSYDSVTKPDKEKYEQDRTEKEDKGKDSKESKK
Chain of hNav 1.7 (Q07699 19-218 partner): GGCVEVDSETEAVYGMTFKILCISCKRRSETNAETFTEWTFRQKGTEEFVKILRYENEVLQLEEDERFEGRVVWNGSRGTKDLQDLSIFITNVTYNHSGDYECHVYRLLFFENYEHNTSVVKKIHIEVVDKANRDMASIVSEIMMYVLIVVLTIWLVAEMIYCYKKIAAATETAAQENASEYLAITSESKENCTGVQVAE
Chain of hNav 1.7 (O60939 30-215 partner): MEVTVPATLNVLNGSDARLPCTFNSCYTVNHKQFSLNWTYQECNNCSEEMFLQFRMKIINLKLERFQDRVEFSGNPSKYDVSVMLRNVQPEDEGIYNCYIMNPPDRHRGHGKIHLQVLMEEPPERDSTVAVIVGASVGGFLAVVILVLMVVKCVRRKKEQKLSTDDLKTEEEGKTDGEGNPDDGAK

| IC50 [µM] | SMILES |
| --- | --- |
| 0.091 | Cn1nccc1[C@H]1CCCCC[C@@H]1Oc1cc(F)c(S(=O)(=O)Nc2ccncn2)cc1F (relative stereo) [Compound 9, 2,5-Difluoro-4-{[(1S*,2R*)-2-(1-methyl-1H-pyrazol-5-yl)cycloheptyl]oxy}-N-(pyrimidin-4-yl)benzenesulfonamide] |
| 0.037 | Cn1nccc1[C@H]1CCCCC[C@@H]1Oc1cc(F)c(S(=O)(=O)Nc2ccncn2)cc1Cl (relative stereo) [Compound 19, 5-Chloro-2-fluoro-4-{[(1S*,2R*)-2-(1-methyl-1H-pyrazol-5-yl)cycloheptyl]oxy}-N-(pyrimidin-4-yl)benzenesulfonamide] |
